Source: patent publication US5346913A, “N-iodopropargyl hydantoin compounds, compositions, preparation, and use as antimicrobial agents” (Rohm and Haas Company, priority 1992, dated 1994)
≈ marks a conversion by molar mass, not a printed value. Like-named read-outs stand apart in the source and are kept apart here.

Legend:
Escherichia coli = assay: MIC, broth two-fold serial dilution test, Escherichia coli (Ecol); type: cell-based
Source text: (§1) The compounds identified with a prime (') were the non-iodo analogues of the invention compounds, i.e., the compounds of formula III or IV. All data are reported in ppm of active ingredient required to control the respective organism. The indication "No In." means that the compound had no inhibitory activity at 500 ppm which was the maximum tested, and so if the "No In." compound were active, the minimum inhibitory concentration would be above 500 ppm. The comparative tests were not run side-by-side, but were run on different days using the same methods. […] A minimum inhibitory concentration (MIC) value is obtained using a broth, two-fold serial dilution test performed as follows: […] A volume of the stock solution is dispensed into culture media to give an initial starting test concentration of the compound of 500 ppm or 250 ppm. When the test is ready to be done, each vessel in the dilution series, except the first vessel, contains an equal volume of compound free broth. The first vessel contains twice the volume of broth with the starting concentration of test compound. One half of the broth from the first vessel is transferred to the second vessel. After being mixed, one half the resulting volume is removed from the second vessel and transferred to the third vessel. […] Each vessel is then inoculated with a cell suspension of the appropriate test organism. Bacteria are grown in broth and fungi on agar […] is grown in cooling tower media for a time and at a temperature appropriate to the species being tested. At the end of the growth period, the broth is vortexed to disperse the cells. In the case of fungi, the spores are harvested by pipetting water onto the slant and dislodging the spores with a sterile loop. The cell/spore suspension is standardized by controlling incubation time, temperature, and the volume of the diluent. The suspension is then used to inoculate the vessels containing the broth compound. The vessels are then incubated at the appropriate temperature. After the incubation, the vessels are examined for growth/no growth. The MIC is defined as the lowest concentration of compound that results in complete inhibition of growth of the test organism. BACTERIA: Pseudomonas fluorescens (Ps.fl), gram negative; Pseudomonas aerugenosa (Ps.ae), gram negative; Escherichia coli (E.c), gram negative; and Staphylococcus aureus (S.a), gram positive.

Aspergillus niger = assay: MIC, broth two-fold serial dilution test, Aspergillus niger (Anig); type: cell-based; settings: TSB
Source text: as §1, with “INDUSTRIAL FUNGI: Aspergillus niger (A.n); Aureobasidium pullulans (A.p)” for “BACTERIA: Pseudomonas fluorescens (Ps.fl), gram negative; Pseudomonas aerugenosa (Ps.ae), gram negative; Escherichia coli (E.c), gram negative; and Staphylococcus aureus (S.a), gram positive.”

Pseudomonas aerugenosa = assay: MIC, broth two-fold serial dilution test, Pseudomonas aerugenosa (Psae); type: cell-based
Source text: as §1

Staphylococcus aureus = assay: MIC, broth two-fold serial dilution test, Staphylococcus aureus (Saur); type: cell-based
Source text: as §1

[1] = tested on: Pellicularia filamentosa (f. sp. sasiki); assay: whole plant or invertebrate; type: in vivo; settings: 120 h; read-out: % Control RSB
[2] = tested on: Pseudoperonospora cubensis; assay: whole plant or invertebrate; type: in vivo; settings: for pest or weed control at 200 ppm: Pseudoperonospora cubensis, in Cucumis sativus, 168 h, read-out: % Control CDM
[3] = tested on: Puccinia recondita (f. sp. tritici Races PKB and PLD); assay: whole plant or invertebrate; type: in vivo; settings: for pest or weed control at 50 ppm / pest or weed control at 200 ppm: Puccinia recondita, 240 h, read-out: % Control WLR
[4] = tested on: Erysiphe graminis (f. sp. tritici); assay: whole plant or invertebrate; type: in vivo; settings: for pest or weed control at 50 ppm / pest or weed control at 200 ppm: Blumeria graminis, read-out: % Control WPM
Phytophthora infestans = assay: whole plant or invertebrate; type: in vivo; settings: for pest or weed control at 200 ppm / pest or weed control at 50 ppm: Phytophthora infestans, in Solanum lycopersicum, 96 h; for pest or weed control at 50 ppm: read-out: % Control TLB, secondary greenhouse test (Table 5), 50 ppm
Piricularia oryzae = assay: whole plant or invertebrate; type: in vivo; settings: Pyricularia oryzae, read-out: % Control RB
TLB, CDM, WLR, SNW, WPM = settings: in vivo
Septoria nodorum = settings: in vivo
[5] = read-out: % Control TLB, greenhouse test (Table 4), 200 ppm
[6] = read-out: % Control TLB, secondary greenhouse test (Table 5), 200 ppm

Row | Structure (SMILES) | MIC (Escherichia coli; M9G) [µg/mL] | MIC (Escherichia coli; TSB) [µg/mL] | MIC (Aspergillus niger) [µg/mL] | MIC (Pseudomonas aerugenosa; M9G) [µg/mL] | MIC (Pseudomonas aerugenosa; TSB) [µg/mL] | MIC (Staphylococcus aureus; M9G) [µg/mL] | MIC (Staphylococcus aureus; TSB) [µg/mL] | further results
1 | C#CCN1C(=O)N(c2cc(Cl)cc(Cl)c2)C(=O)C1C (centres unmarked) [Compound 1', 1-(2-propynyl)-3-(3,5-dichlorophenyl)-5-methylhydantoin, reference compound] | > 500 | > 500 | > 500 | > 500 | > 500 | > 500 | > 500 | –
2 | CC1C(=O)N(c2cc(Cl)cc(Cl)c2)C(=O)N1CC#CI (centres unmarked) [Compound 1] | > 500 | > 500 | 0.5 (≈ 1.18 µM) | > 500 | > 500 | > 500 | > 500 | pest or weed control at 50 ppm [1]: 50%; pest or weed control at 200 ppm [1]: 75%; pest or weed control at 200 ppm [2]: 90%; pest or weed control at 50 ppm [3]: 50%; pest or weed control at 200 ppm [3]: 80%; pest or weed control at 50 ppm [4]: 0%; pest or weed control at 200 ppm (Phytophthora infestans; [5]): 0%; pest or weed control at 50 ppm (Phytophthora infestans): 75%; pest or weed control at 200 ppm (Phytophthora infestans; [6]): 95%; pest or weed control at 50 ppm (Piricularia oryzae): 50%; pest or weed control at 200 ppm (Piricularia oryzae): 50%
3 | CC1(C)C(=O)N(c2cc(Cl)cc(Cl)c2)C(=O)N1CC#CI [Compound 6, 1-(3-iodo-2-propynyl)-3-(3,5-dichlorophenyl)-5,5-dimethylhydantoin] | > 500 | > 500 | 1 (≈ 2.29 µM) | > 500 | > 500 | 8 (≈ 18.3 µM) | 2 (≈ 4.58 µM) | percent disease control Average (TLB, CDM, WLR, SNW, WPM): 77.6%; percent disease control CDM ([2]; in vivo): 100.0%; percent disease control WLR ([3]; in vivo): 82.0%; percent disease control WPM ([4]; in vivo): 68.0%; percent disease control SNW (Septoria nodorum): 68.0%; percent disease control TLB (Phytophthora infestans; advanced greenhouse test (Table 6), 0.25 kg a.i./ha): 70.0%
4 | O=C1CN(CC#CI)C(=O)N1c1cc(Cl)cc(Cl)c1 [Compound 7, 1-(3-iodo-2-propynyl)-3-(3,5-dichlorophenyl)hydantoin] | > 500 | > 500 | 1 (≈ 2.44 µM) | > 500 | > 500 | 16 (≈ 39.1 µM) | 8 (≈ 19.6 µM) | pest or weed control at 200 ppm [1]: 50%; pest or weed control at 200 ppm [2]: 50%; pest or weed control at 50 ppm [3]: 50%; pest or weed control at 50 ppm [4]: 0%; pest or weed control at 200 ppm (Phytophthora infestans; [5]): 90%; pest or weed control at 50 ppm (Phytophthora infestans): 50%; pest or weed control at 200 ppm (Phytophthora infestans; [6]): 90%; pest or weed control at 50 ppm (Piricularia oryzae): 50%; pest or weed control at 200 ppm (Piricularia oryzae): 50%
5 | C#CCN1C(=O)N(Cc2ccccc2)C(=O)C1(C)C [Compound 8, 3-benzyl-1-propargyl-5,5-dimethylhydantoin, reference compound] | > 500 | > 500 | > 500 | > 500 | > 500 | > 500 | > 500 | –
6 | CC1(C)C(=O)N(Cc2ccccc2)C(=O)N1CC#CI [Compound 8] | 64 (≈ 167 µM) | 125 (≈ 327 µM) | < 0.25 | 32 (≈ 83.7 µM) | 125 (≈ 327 µM) | 16 (≈ 41.9 µM) | 16 (≈ 41.9 µM) | pest or weed control at 50 ppm [1]: 50%; pest or weed control at 200 ppm [1]: 75%; pest or weed control at 50 ppm [3]: 80%; pest or weed control at 200 ppm [3]: 90%; pest or weed control at 50 ppm [4]: 0%; pest or weed control at 200 ppm [4]: 50%; pest or weed control at 50 ppm (Phytophthora infestans): 50%; pest or weed control at 200 ppm (Phytophthora infestans; [6]): 50%; pest or weed control at 50 ppm (Piricularia oryzae): 50%; pest or weed control at 200 ppm (Piricularia oryzae): 50%
7 | CCCCN1C(=O)N(CC#CI)C(C)(C)C1=O [Compound 9, 1-(3-iodo-2-propynyl)-3-n-butyl-5,5-dimethylhydantoin] | 16 (≈ 46 µM) | 500 (≈ 1440 µM) | 2 (≈ 5.74 µM) | 64 (≈ 184 µM) | 500 (≈ 1440 µM) | 4 (≈ 11.5 µM) | 16 (≈ 46 µM) | –
8 | CCCCCCCCN1C(=O)N(CC#CI)C(C)(C)C1=O [Compound 10, 1-(3-iodo-2-propynyl)-3-n-octyl-5,5-dimethylhydantoin] | 250 (≈ 618 µM) | > 500 | 4 (≈ 9.89 µM) | 125 (≈ 309 µM) | > 500 | 2 (≈ 4.95 µM) | 4 (≈ 9.89 µM) | –
9 | C#CCN1C(=O)N(CC#C)C(C)(C)C1=O [Compound 11, 1,3-bis-(2-propynyl)-5,5-dimethylhydantoin, reference compound] | > 500 | > 500 | > 500 | > 500 | > 500 | > 500 | > 500 | –
10 | C#CCN1C(=O)NC(C)(C)C1=O [Compound 12, 3-(2-propynyl)-5,5-dimethylhydantoin, reference compound] | > 500 | > 500 | > 500 | > 500 | > 500 | > 500 | > 500 | –
11 | CC(C)(C#CI)N1CC(=O)N(c2cc(Cl)cc(Cl)c2)C1=O [Compound 13, 1-(1,1-dimethyl-3-iodo-2-propynyl)-3-(3,5-dichlorophenyl)hydantoin] | > 500 | > 500 | 8 (≈ 18.3 µM) | > 500 | > 500 | > 500 | > 500 | pest or weed control at 50 ppm [1]: 50%; pest or weed control at 200 ppm [1]: 75%; pest or weed control at 200 ppm [2]: 80%; pest or weed control at 50 ppm [3]: 50%; pest or weed control at 200 ppm [3]: 90%; pest or weed control at 50 ppm [4]: 50%; pest or weed control at 200 ppm [4]: 75%; pest or weed control at 200 ppm (Phytophthora infestans; [5]): 70%; pest or weed control at 50 ppm (Phytophthora infestans): 0%; pest or weed control at 200 ppm (Phytophthora infestans; [6]): 50%; pest or weed control at 50 ppm (Piricularia oryzae): 50%; pest or weed control at 200 ppm (Piricularia oryzae): 50%
12 | C#CCN1C(=O)N(Cc2ccccc2)C(C)(C)C1=O [Compound 14, 1-benzyl-3-(propyn-2-yl)-5,5-dimethylhydantoin, reference compound] | > 500 | > 500 | > 500 | > 500 | > 500 | > 500 | > 500 | –
13 | CC1(C)C(=O)N(CC#CI)C(=O)N1Cc1ccccc1 [Compound 14] | 125 (≈ 327 µM) | 250 (≈ 654 µM) | 4 (≈ 10.5 µM) | > 500 | > 500 | > 500 | 64 (≈ 167 µM) | –
14 | O=C1CNC(=O)N1CC#CI [Compound 15, 3-(3-iodo-2-propynyl)-hydantoin] | 64 (≈ 242 µM) | 64 (≈ 242 µM) | 8 (≈ 30.3 µM) | 250 (≈ 947 µM) | 500 (≈ 1890 µM) | 64 (≈ 242 µM) | 125 (≈ 473 µM) | –
